Patent US20100143405A1, “Immunotherapy of virus infection” (priority 2004, published 2010)

What was measured:
[1] = system: PBMC; experiment: PBMC proliferation induced by Th epitope P25; type: cell-based, human
Text: Preferably, the Th cell epitope is P25, KLIPNASLIENCTKAEL (SEQ ID No:8), from the F protein of morbillivirus (Ghosh et al, 2001). This epitope is promiscuous in all outbred dogs that have been studied by the inventors so far and also in all strains of mice and cattle examined (unpublished results). This epitope is also able to induce PBMC proliferation in at least 50% of blood samples extracted from human volunteers. The F protein is conserved across most morbilliviruses and in the case of P25 is conserved in canine distemper virus, rhinderpest and measles viruses.

[2] = system: CTL epitope-specific CD8^+ T cells; parameters: species or system BALB/c mice; conditions: mouse, in vivo

Row | Substance | blood samples from human volunteers in which PBMC proliferation is induced [1] | antigen-specific CD8+ T cell responses compared with non-lipidated peptide [2] | antigen-specific CD8+ T cells in lung and spleen compared with non-lipidated peptide [2]
1 | KLIPNASLIENCTKAEL (Morbillivirus) [P25] | at least 50% | – | –
2 | GALNNRFQIKGVELKS-K(Pam2CSS)-TYQRTRALV [lipopeptide] | – | not enhanced | more antigen-specific CD8^+ T cells
